Data set [1] can be described thus: Viscosity of FITC-Dex solutions (rotating rheometer). It is filed as physicochemical. The method, then:
The viscosity was measured using a rotating rheometer (Physica MCR302, product of Anton Paar).

Data set [2] concerns human pulmonary carcinoma cell line A549. In words: Tumor treatment effect in A549-transplanted BALB/c nude mice. The following applies: 200 μL i.v.; gemcitabine 5 mg/kg or matched carrier amount; 28 days; vs PBS group. The format is in vivo, mouse. The method, then: Human pulmonary carcinoma cell line A549-transplanted BALB/c nude mice (7-week-old, for each sample) were divided into 7 groups of 5 each, among which 6 of the groups were intravenously administered samples 1 to 6 (Groups 1 to 6), respectively. The dose of each sample was 200 μL, and the concentration of each sample of the GEM-adsorbed sulfonated MSN-encapsulating vesicles (sample No. 1), the GEM-adsorbed sulfonated MSN (sample No. 3) and the gemcitabine alone (sample No. 6) was adjusted for a gemcitabine concentration of 5 mg/kg of mouse body weight, while the amounts of sulfonated MSN-encapsulating vesicles (sample No. 2) and vacant vesicles (sample No. 5) added were adjusted to be the same as the amount of GEM-adsorbed sulfonated MSN-encapsulating vesicles (sample No. 1) in terms of MSN-encapsulating vesicles, and the amount of sulfonated MSN (sample No. 4) added was adjusted to be the same as the amount of GEM-adsorbed sulfonated MSN (sample No. 3) in terms of MSN. To the remaining group there was administered 200 μL of PBS (Group 7). The tumor volumes were measured for 28 days after administration. Tumor volume was measured by measuring the long diameter and short diameter of the tumor using a caliper, and calculation was performed by the following formula. V=(a^2×b)/2 V: Tumor volume, a: long diameter, b: short diameter

The test system of another data set is C26 cells. The experiment in a line: Cytotoxic effect (Cell Counting Kit-8). The format is cell-based, murine. Particulars: 48 and 72 hours, gemcitabine concentration 0.1 μg/mL or matched carrier amount. The method, then:
Also, the cytotoxic effects of each of the samples (sample Nos. 1 to 6) at 48 hours and 72 hours after the start of culturing were evaluated by the following procedure. Specifically, using a Cell Counting Kit-8 (product of Dojindo) according to the manufacturer's instructions, reagent was added to each well and culturing was conducted for 1 hour, after which the viable cell count was measured. The results after 48 hours of culturing are shown in FIG. 34(a), and the results after 72 hours of culturing are shown in FIG. 34(b).
In addition, using C26 cells (a murine colon adenocarcinoma cell line) instead of A549 cells, the cell uptake property and cytotoxic effect were evaluated by the same procedure described above, except for the points mentioned below. […]

In another data set the test system is A549 cells. The experiment in a line: Cytotoxic effect (Cell Counting Kit-8). It is filed as cell-based, human. The following applies: 48 and 72 hours, gemcitabine concentration 0.5 μg/mL or matched carrier amount. The method, then: Specifically, the GEM-adsorbed sulfonated MSN-encapsulating vesicles obtained by the procedure described above (sample No. 1), the sulfonated MSN-encapsulating vesicles used as material for the foregoing (Example II-3A) (sample No. 2) and the vacant vesicles used as material for the foregoing (Example II-1) (sample No. 5) were each labeled with Cy3 (labeling 25% of the number of anionic polymers), and then A549 cells were added to each well of a plate having a density of 2.2×10^3 cells/well in RPMI-1640 medium, prior to culturing at 37° C. The amount of GEM-adsorbed sulfonated MSN-encapsulating vesicles (sample No. 1) added was an amount for a gemcitabine concentration of 0.5 μg/mL in the medium, the amounts of sulfonated MSN-encapsulating vesicles (sample No. 2) and vacant vesicles (sample No. 5) added were adjusted to be the same as the amount of GEM-adsorbed sulfonated MSN-encapsulating vesicles (sample No. 1) in terms of MSN-encapsulating vesicles. […]
Also, the cytotoxic effects of each of the samples (sample Nos. 1 to 6) at 48 hours and 72 hours after the start of culturing were evaluated by the following procedure. Specifically, using a Cell Counting Kit-8 (product of Dojindo) according to the manufacturer's instructions, reagent was added to each well and culturing was conducted for 1 hour, after which the viable cell count was measured. […]

The test system of data set [3] is mouse colon cancer cell line C26. The experiment in a line: Tumor treatment effect in C26-transplanted BALB/c mice. It is filed as in vivo. Particulars: for antitumor effect (tumor volume): i.v., days 3, 7, 10, 14. The method, then:
Mouse colon cancer cell line C26-transplanted BALB/c mice (6-week-old) were divided into 8 groups of 5 each (groups 1 to 8), and each group was intravenously administered 200 μL each of CD-enclosing crosslinked vesicles (0.5 U/mL) prepared by the procedure described above, 5-FC, 5-FU or PBS, at the timing shown in Table 9 below. The 5-FC and 5-FU were prepared for 10 mg/kg (body weight) or 80 mg/kg (body weight), based on the mouse body weight. […] The tumor volume was measured by measuring the long diameter and short diameter of the tumor using a caliper, and the calculation was performed by the following formula. V=(a^2×b)/2 V: Tumor volume, a: long diameter, b: short diameter

[4] abbreviates: dose of 10 mg/kg (5-FC or 5-FU).
The mark [5] stands for this setting: dose of 80 mg/kg (5-FC or 5-FU).

With “fluorescein isothiocyanate-dextran [FITC-Dex 40000]”, the viscosity is listed as 0.0513 Pa·s in data set [1] (concentration 4 mg/mL), 0.1377 Pa·s in data set [1] (concentration 10 mg/mL) and 0.5481 Pa·s in data set [1] (concentration 50 mg/mL).
“fluorescein isothiocyanate-dextran [FITC-Dex 4000]” had a viscosity in data set [1] (concentration 10 mg/mL) of 0.0097 Pa·s.
Consider `Nc1ccn([C@@H]2O[C@H](CO)[C@@H](O)C2(F)F)c(=O)n1` [gemcitabine alone, Gemcitabine], for which the “antitumor effect (tumor volume)” value in data set [2] is listed as “no significant antitumor effect was seen”. For the same compound, the “cytotoxic effect (viable cell count)” value in the data set on C26 cells and with A549 cells was “powerful cytotoxic effect” throughout.
Turning to `Nc1nc(=O)[nH]cc1F` [Example 5-FC, 5-fluorocytosine], the “antitumor effect (tumor volume)” value in data set [3] (setting [4]) and in data set [3] (setting [5]) was “no significant antitumor effect or toxicity” in each case.
For the compound “fluorescein isothiocyanate-dextran [FITC-Dex 10000]”, the viscosity in data set [1] (concentration 4 mg/mL) is recorded as 0.0504 Pa·s; in data set [1] (concentration 10 mg/mL) it was 0.1271 Pa·s.
As for `O=c1[nH]cc(F)c(=O)[nH]1` [Example 5-FU, 5-fluorouracil], the entries for the “antitumor effect (tumor volume)” value in data set [3] (setting [4]) and in data set [3] (setting [5]) were “very weak antitumor effect” and “antitumor effect that shrunk the tumor”, respectively. The “individuals died by the 28th day after administration” value in data set [3] (dose of 10 mg/kg, 5 mice per group) was determined as 3. The survival entry in data set [3] (dose of 80 mg/kg, 5 mice per group, up to 28 days) is given as “all of the individuals died by the 17th day”.

The values above are taken from US10322092B2, “Substance-containing vesicle, and production method therefor” (JAPAN SCIENCE AND TECHNOLOGY AGENCY, priority 2013, dated 2019).
